Assay results published in patent publication US8247211B2, “Glycopeptide antibiotics” (American Cyanamid Company, priority 2001, dated 2012).
In brackets after ≈: the same amount, converted by molar mass.

How the values were obtained:
Experiment in all cases: In vitro antibacterial evaluation: minimum inhibitory concentration (MIC), broth dilution method
Assay type in all cases: cell-based
Enterococcus sp. = test system: Enterococcus sp.
Description: (§1) The minimum inhibitory concentration (MIC), the lowest concentration of the antibiotic which inhibits growth of the test organism, is determined by the broth dilution method using Muller-Hinton II […] (Baltimore Biological Laboratories) following the recommendations of the National Committee for Clinical Laboratory Standards [Methods for dilution antimicrobial susceptibility tests for bacteria that grow aerobically, approved standard M7-A2, National Committee for Clinical Laboratory Standards, Villanova, Pa].
(§2) An inoculum level of 5×10^5 CFU/mL, and a range of antibiotic concentrations (64-0.06 μg/mL) is used. […] The test organisms include a spectrum of Gram-positive bacteria comprised of Staphylococcus sp., Streptococcus sp. and Enterococcus sp. These organisms include recent clinical isolates that are resistant to methicillin, penicillin and/or vancomycin.

Escherichia coli = test system: Escherichia coli
Description: as §1, §2

Streptococcus sp. = test system: Streptococcus sp.
Description: as §1, §2

Staphylococcus sp. = settings: broth dilution, 18 hours at 35° C.
Description: as §1, §2

[1] = broth dilution, inoculum 5×10^5 CFU/mL, 18 hours at 35° C.

CSc1ccc(C2OCC3OC(OC4C(CO)OC(Oc5ccc(CC6NC(=O)C(C(C)c7ccccc7)NC(=O)CNC(=O)C(CO)NC(=O)C(C(O)C7CNC(=N)N7C7OC(CO)C(O)C(O)C7O)NC(=O)C(C(O)C7CNC(=N)N7)NC6=O)cc5)C(O)C4O)C(O)C(O)C3O2)cc1[N+](=O)[O-] (stereo not drawn) [Example 168, Cyclo[glycyl-β-methylphenylalanyl-O-[4-O-[4,6-O-[4-(methylthio)-3-nitrobenzylidene]hexopyranosyl]hexopyranosyl]tyrosyl-3-(2-iminoimidazolidin-4-yl)seryl-3-(3-hexopyranosyl-2-iminoimidazolidin-4-yl)serylseryl]]
MIC Enterococcus avium (GC 4558) (Enterococcus sp.; [1]): 2 µg/mL (≈ 1.36 µM) | MIC Enterococcus faecalis (ATCC 29212) (Enterococcus sp.; [1]): 2 µg/mL (≈ 1.36 µM) | MIC Enterococcus faecalis (GC 2242) (Enterococcus sp.; [1]): 2 µg/mL (≈ 1.36 µM) | MIC Enterococcus faecalis (GC 2691) (Enterococcus sp.; [1]): 2 µg/mL (≈ 1.36 µM) | MIC Enterococcus faecalis (GC 3059) (Enterococcus sp.; [1]): 2 µg/mL (≈ 1.36 µM) | MIC Enterococcus faecalis (GC 4552) (Enterococcus sp.; [1]): 2 µg/mL (≈ 1.36 µM) | MIC Enterococcus faecalis (GC 4553) (Enterococcus sp.; [1]): 2 µg/mL (≈ 1.36 µM) | MIC Enterococcus faecalis (GC 4554) (Enterococcus sp.; [1]): 2 µg/mL (≈ 1.36 µM) | MIC Enterococcus faecalis (GC 6189) (Enterococcus sp.; [1]): 2 µg/mL (≈ 1.36 µM) | MIC Enterococcus faecium (GC 2243) (Enterococcus sp.; [1]): 2 µg/mL (≈ 1.36 µM) | MIC Enterococcus faecium (GC 4556) (Enterococcus sp.; [1]): 2 µg/mL (≈ 1.36 µM) | MIC Enterococcus faecium (GC 4557) (Enterococcus sp.; [1]): 1 µg/mL (≈ 0.678 µM) | MIC Enterococcus faecalis (ATCC 29212) (Enterococcus sp.; strain ATCC 29212): 2 µg/mL (≈ 1.36 µM) | MIC Enterococcus faecalis (GC 2242) (Enterococcus sp.; strain GC 2242): 2 µg/mL (≈ 1.36 µM) | MIC Enterococcus faecium (GC 2243) (Enterococcus sp.; strain GC 2243): 2 µg/mL (≈ 1.36 µM) | MIC Enterococcus faecalis (GC 2691) (Enterococcus sp.; strain GC 2691): 2 µg/mL (≈ 1.36 µM) | MIC Enterococcus faecalis (GC 3059) (Enterococcus sp.; strain GC 3059): 2 µg/mL (≈ 1.36 µM) | MIC Enterococcus faecalis (GC 4552) (Enterococcus sp.; strain GC 4552): 2 µg/mL (≈ 1.36 µM) | MIC Enterococcus faecalis (GC 4553) (Enterococcus sp.; strain GC 4553): 2 µg/mL (≈ 1.36 µM) | MIC Enterococcus faecalis (GC 4554) (Enterococcus sp.; strain GC 4554): 2 µg/mL (≈ 1.36 µM) | MIC Enterococcus faecium (GC 4556) (Enterococcus sp.; strain GC 4556): 2 µg/mL (≈ 1.36 µM) | MIC Enterococcus faecium (GC 4557) (Enterococcus sp.; strain GC 4557): 1 µg/mL (≈ 0.678 µM) | MIC Enterococcus avium (GC 4558) (Enterococcus sp.; strain GC 4558): 2 µg/mL (≈ 1.36 µM) | MIC Enterococcus faecalis (GC 6189) (Enterococcus sp.; strain GC 6189): 2 µg/mL (≈ 1.36 µM) | MIC Escherichia coli (ATCC 25922) (Escherichia coli; strain ATCC 25922): 64 µg/mL (≈ 43.4 µM) | MIC Escherichia coli (GC 4559) (Escherichia coli; strain GC 4559): 16 µg/mL (≈ 10.9 µM) | MIC Escherichi coli (GC 4560) (Escherichia coli; strain GC 4560): 0.5 µg/mL (≈ 0.339 µM) | MIC Streptococcus agalactiae (GC 4564) (Streptococcus sp.; [1]): <0.12 µg/mL | MIC Streptococcus pneumoniae (ATCC 6301) (Streptococcus sp.; [1]): <0.12 µg/mL | MIC Streptococcus pneumoniae (GC 1894) (Streptococcus sp.; [1]): <0.12 µg/mL | MIC Streptococcus pneumoniae (GC 4565) (Streptococcus sp.; [1]): <0.12 µg/mL | MIC Streptococcus pyogenes (GC 4563) (Streptococcus sp.; [1]): 0.5 µg/mL (≈ 0.339 µM) | MIC Streptococcus pneumoniae (ATCC 6301) (Streptococcus sp.; strain ATCC 6301): <0.12 µg/mL | MIC Streptococcus pneumoniae (GC 1894) (Streptococcus sp.; strain GC 1894): <0.12 µg/mL | MIC Streptococcus pyogenes (GC 4563) (Streptococcus sp.; strain GC 4563): 0.5 µg/mL (≈ 0.339 µM) | MIC Streptococcus agalactiae (GC 4564) (Streptococcus sp.; strain GC 4564): <0.12 µg/mL | MIC Streptococcus pneumoniae (GC 4565) (Streptococcus sp.; strain GC 4565): <0.12 µg/mL | MIC Coagulase Negative Staphylococcus (GC 4547) (Staphylococcus sp.; 5×10^5 CFU/mL): 2 µg/mL (≈ 1.36 µM) | MIC Coagulase Negative Staphylococcus (GC 4548) (Staphylococcus sp.; 5×10^5 CFU/mL): 0.5 µg/mL (≈ 0.339 µM) | MIC Coagulase Negative Staphylococcus (GC 4549) (Staphylococcus sp.; 5×10^5 CFU/mL): 0.5 µg/mL (≈ 0.339 µM) | MIC Coagulase Negative Staphylococcus (GC 4551) (Staphylococcus sp.; 5×10^5 CFU/mL): 1 µg/mL (≈ 0.678 µM) | MIC Staphylococcus aureus (ATCC 29213) (Staphylococcus sp.; 5×10^5 CFU/mL): 1 µg/mL (≈ 0.678 µM) | MIC Staphylococcus aureus (GC 1131) (Staphylococcus sp.; 5×10^5 CFU/mL): 1 µg/mL (≈ 0.678 µM) | MIC Staphylococcus aureus (GC 3051) (Staphylococcus sp.; 5×10^5 CFU/mL): 1 µg/mL (≈ 0.678 µM) | MIC Staphylococcus aureus (GC 3053) (Staphylococcus sp.; 5×10^5 CFU/mL): 1 µg/mL (≈ 0.678 µM) | MIC Staphylococcus aureus (GC 4541) (Staphylococcus sp.; 5×10^5 CFU/mL): 1 µg/mL (≈ 0.678 µM) | MIC Staphylococcus aureus (GC 4542) (Staphylococcus sp.; 5×10^5 CFU/mL): 1 µg/mL (≈ 0.678 µM) | MIC Staphylococcus aureus (GC 4544) (Staphylococcus sp.; 5×10^5 CFU/mL): 2 µg/mL (≈ 1.36 µM) | MIC Staphylococcus aureus (GC 4545) (Staphylococcus sp.; 5×10^5 CFU/mL): 1 µg/mL (≈ 0.678 µM) | MIC Staphylococcus aureus-SMITH (GC 4543) (Staphylococcus sp.; 5×10^5 CFU/mL): 1 µg/mL (≈ 0.678 µM) | MIC Staphylococcus haemolyticus (GC 4546) (Staphylococcus sp.; 5×10^5 CFU/mL): 0.5 µg/mL (≈ 0.339 µM) | MIC Staphylococcus aureus (ATCC 29213) (Staphylococcus sp.; strain ATCC 29213): 1 µg/mL (≈ 0.678 µM) | MIC Staphylococcus aureus (GC 1131) (Staphylococcus sp.; strain GC 1131): 1 µg/mL (≈ 0.678 µM) | MIC Staphylococcus aureus (GC 3051) (Staphylococcus sp.; strain GC 3051): 1 µg/mL (≈ 0.678 µM) | MIC Staphylococcus aureus (GC 3053) (Staphylococcus sp.; strain GC 3053): 1 µg/mL (≈ 0.678 µM) | MIC Staphylococcus aureus (GC 4541) (Staphylococcus sp.; strain GC 4541): 1 µg/mL (≈ 0.678 µM) | MIC Staphylococcus aureus (GC 4542) (Staphylococcus sp.; strain GC 4542): 1 µg/mL (≈ 0.678 µM) | MIC Staphylococcus aureus (GC 4544) (Staphylococcus sp.; strain GC 4544): 2 µg/mL (≈ 1.36 µM) | MIC Staphylococcus aureus (GC 4545) (Staphylococcus sp.; strain GC 4545): 1 µg/mL (≈ 0.678 µM)
